What was measured:
Assay type in all cases: biochemical
MMP-10 = target: T1, MMP-10 (Homo sapiens, UniProt P09238); assay: In vitro MMP-10 inhibition test
T1 construct: purchased R&D Systems 910-MP
Method in brief: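 APMA-activated recombinant MMP-10 (final e.g. 2 nM) with quenched Mca-Arg-Pro-Lys-Pro-Val-Glu-Nval-Trp-Arg-Lys(Dnp)-NH2 substrate (final e.g. 10 μM) in 50 mM Tris/HCl pH 7.5, 10 mM CaCl2, 150 mM NaCl, 0.05% Brij-35. Fluorescence (ex 320/em 410 nm) followed e.g. 120 min at 32 °C. IC50 at 50% signal.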

mouse MMP-3 = target: T2, mouse MMP-3 (Mus musculus, UniProt P28862); assay: In vitro mouse MMP-3 inhibition test
T2 construct: purchased R&D Systems 548-MP
T2 sequence (P28862 100-477): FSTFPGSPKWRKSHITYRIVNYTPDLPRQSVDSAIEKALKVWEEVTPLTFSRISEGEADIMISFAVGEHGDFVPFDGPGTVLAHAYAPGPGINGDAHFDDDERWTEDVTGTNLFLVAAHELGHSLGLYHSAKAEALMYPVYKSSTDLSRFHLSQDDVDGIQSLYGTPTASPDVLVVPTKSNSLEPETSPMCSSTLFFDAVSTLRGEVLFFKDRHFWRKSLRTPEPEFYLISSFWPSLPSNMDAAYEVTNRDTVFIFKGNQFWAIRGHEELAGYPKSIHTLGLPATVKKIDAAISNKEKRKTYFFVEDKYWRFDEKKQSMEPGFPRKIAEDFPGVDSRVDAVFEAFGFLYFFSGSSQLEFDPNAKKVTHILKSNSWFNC
Description: (§1) The MMP-mediated amidolytic cleavage of a suitable peptide substrate leads to an increase in fluorescent light here too. The signal intensity of the fluorescent light is directly proportional to the enzyme activity. The active concentration of a test compound at which half the enzyme is inhibited (50% signal intensity of the fluorescent light) is reported as the IC50 value.
Recombinant mouse MMP-3 (from R&D Systems, 548-MP) is chemically activated in accordance with the manufacturer's instructions using APMA. 1 μl of the test compound to be analysed (as a solution in DMSO, suitable concentrations, for example, 1 nM to 30 μM) is pipetted into 24 μl of activated enzyme (final concentration, for example, 0.5 nM) in reaction buffer (50 mM Tris/HCl pH 7.5, 10 mM CaCl2, 150 mM NaCl, 0.05% Brij®-35) in a white 384-hole microtiter plate (MTP). The enzymatic reaction is started by adding the intramolecularly quenched Mca-Arg-Pro-Lys-Pro-Val-Glu-Nval-Trp-Arg-Lys(Dnp)-NH2 substrate (final concentration, for example, 5 μM; R&D Systems, ES-002), so as to result in a total test volume of 50 μl. The course of the MMP-3 reaction is measured by measuring the fluorescence intensity (excitation 320 nm, emission 410 nm) over a suitable period of time (for example over 120 min at a temperature of 32° C.).

mouse MMP-2 = target: T3, mouse MMP-2 (Mus musculus, UniProt P33434); assay: In vitro mouse MMP-2 inhibition test
T3 construct: purchased R&D Systems 924-MP
T3 sequence (P33434 110-662): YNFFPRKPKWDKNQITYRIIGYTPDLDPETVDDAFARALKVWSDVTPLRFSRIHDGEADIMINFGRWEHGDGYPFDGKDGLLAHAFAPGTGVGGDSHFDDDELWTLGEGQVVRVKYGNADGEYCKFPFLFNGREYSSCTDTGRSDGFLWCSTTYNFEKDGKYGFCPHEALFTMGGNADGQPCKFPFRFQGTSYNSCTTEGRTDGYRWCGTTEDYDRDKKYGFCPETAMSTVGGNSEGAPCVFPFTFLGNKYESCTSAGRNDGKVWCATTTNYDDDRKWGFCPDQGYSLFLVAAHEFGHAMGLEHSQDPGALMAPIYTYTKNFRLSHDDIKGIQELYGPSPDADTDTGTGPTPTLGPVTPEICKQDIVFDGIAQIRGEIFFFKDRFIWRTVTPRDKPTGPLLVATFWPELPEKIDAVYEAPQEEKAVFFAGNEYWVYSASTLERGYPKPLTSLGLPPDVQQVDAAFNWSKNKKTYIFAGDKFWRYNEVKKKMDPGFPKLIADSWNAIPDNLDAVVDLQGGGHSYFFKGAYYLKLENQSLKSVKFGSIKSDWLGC
Description: as §1
Recombinant mouse MMP-2 (from R&D Systems, 924-MP) is chemically activated in accordance with the manufacturer's instructions using APMA. 1 μl of the test compound to be analysed (as a solution in DMSO, suitable concentrations, for example, 1 nM to 30 μM) is pipetted into 24 μl of activated enzyme (final concentration, for example, 0.1 nM) in reaction buffer (50 mM Tris/HCl pH 7.5, 10 mM CaCl2, 150 mM NaCl, 0.05% Brij®-35) in a white 384-hole microtiter plate (MTP). The enzymatic reaction is started by adding the intramolecularly quenched Mca-Pro-Leu-Gly-Leu-Dpa(Dnp)-Ala-Arg-NH2 substrate (final concentration, for example, 10 μM; R&D Systems, ES-001), so as to result in a total test volume of 50 The course of the MMP-2 reaction is measured by measuring the fluorescence intensity (excitation 320 nm, emission 410 nm) over a suitable period of time (for example over 120 min at a temperature of 32° C.).

MMP-2 = target: T4, MMP-2 (Homo sapiens, UniProt P08253); assay: In vitro MMP-2 inhibition test
T4 construct: purchased R&D Systems 902-MP
T4 sequence (P08253 110-660): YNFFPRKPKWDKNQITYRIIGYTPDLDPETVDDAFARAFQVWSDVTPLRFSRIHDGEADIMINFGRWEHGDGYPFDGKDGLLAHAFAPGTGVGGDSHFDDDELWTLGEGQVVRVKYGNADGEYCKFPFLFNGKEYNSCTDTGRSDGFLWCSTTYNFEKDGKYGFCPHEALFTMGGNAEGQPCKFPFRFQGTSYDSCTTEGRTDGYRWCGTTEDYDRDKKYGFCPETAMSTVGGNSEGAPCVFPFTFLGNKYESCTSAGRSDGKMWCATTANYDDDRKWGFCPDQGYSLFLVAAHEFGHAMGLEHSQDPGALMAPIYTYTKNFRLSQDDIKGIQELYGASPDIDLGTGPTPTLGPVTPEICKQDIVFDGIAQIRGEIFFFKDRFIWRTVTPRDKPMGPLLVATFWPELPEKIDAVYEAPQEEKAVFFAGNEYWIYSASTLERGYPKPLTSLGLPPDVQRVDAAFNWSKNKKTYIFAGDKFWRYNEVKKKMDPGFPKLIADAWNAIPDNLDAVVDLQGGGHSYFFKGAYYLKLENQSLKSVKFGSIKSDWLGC
Method in brief: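 APMA-activated recombinant MMP-2 (final e.g. 2 nM) in 50 mM Tris/HCl pH 7.5, 10 mM CaCl2, 150 mM NaCl, 0.05% Brij-35, with compound in DMSO. Started with quenched Mca-PLGL-Dpa(Dnp)-AR-NH2 (e.g. 10 μM); fluorescence (ex 320/em 410 nm) followed e.g. 120 min at 32° C.; IC50 at 50% signal.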

T1 sequence (P09238 99-476): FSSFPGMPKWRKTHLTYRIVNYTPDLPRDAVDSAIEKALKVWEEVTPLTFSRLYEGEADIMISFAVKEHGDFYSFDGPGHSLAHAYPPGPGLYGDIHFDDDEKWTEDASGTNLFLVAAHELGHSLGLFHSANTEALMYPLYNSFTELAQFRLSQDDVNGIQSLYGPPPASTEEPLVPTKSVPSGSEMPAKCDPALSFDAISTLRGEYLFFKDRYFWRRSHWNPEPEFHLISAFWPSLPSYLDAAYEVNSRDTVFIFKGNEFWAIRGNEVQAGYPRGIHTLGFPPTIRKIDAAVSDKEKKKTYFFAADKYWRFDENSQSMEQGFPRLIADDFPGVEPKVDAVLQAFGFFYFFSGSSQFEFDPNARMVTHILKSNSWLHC

Row | IC50 (MMP-10) [nM] | IC50 (mouse MMP-3) [nM] | IC50 (mouse MMP-2) [nM] | IC50 (MMP-2) [nM] | Compound
1 | 110 | 1300 | 490 | 380 | Cc1ccc2nnn(C[C@H]3CC[C@@H](C(=O)c4ccc(OCc5cccc(C(F)(F)F)c5)cc4)[C@@H]3C(=O)O)c(=O)c2c1 (single isomer, unassigned) [Example 101, (+)-(1RS,2SR,5RS)-2-[(6-Methyl-4-oxo-1,2,3-benzotriazin-3(4H)-yl)methyl]-5-(4-{[3-(trifluoromethyl)benzyl]oxy}benzoyl)cyclopentanecarboxylic acid]
2 | 50 | 490 | 290 | 220 | Cc1ccc2nnn(C[C@H]3CC[C@@H](C(=O)c4ccc(OCc5cccc(Cl)c5)cc4)[C@@H]3C(=O)O)c(=O)c2c1 (single isomer, unassigned) [Example 104, (+)-(1RS,2RS,5SR)-2-{4-[(3-Chlorobenzyl)oxy]benzoyl}-5-[(6-methyl-4-oxo-1,2,3-benzotriazin-3(4H)-yl)methyl]cyclopentanecarboxylic acid]
3 | 130 | 2400 | 1100 | 850 | Cc1ccc2nnn(C[C@H]3CC[C@@H](C(=O)c4ccc(OCc5cccc(OC(F)(F)F)c5)cc4)[C@@H]3C(=O)O)c(=O)c2c1 (single isomer, unassigned) [Example 110, (+)-(1RS,2SR,5RS)-2-[(6-Methyl-4-oxo-1,2,3-benzotriazin-3(4H)-yl)methyl]-5-(4-{[3-(trifluoromethoxy)benzyl]oxy}benzoyl)cyclopentanecarboxylic acid]
4 | 26 | 470 | 130 | 97 | Cc1ccc2nnn(C[C@H]3CC[C@@H](C(=O)c4ccc(OCC5CCCCC5)cc4)[C@@H]3C(=O)O)c(=O)c2c1 (single isomer, unassigned) [Example 117, (+)-(1RS,2RS,5SR)-2-[4-(Cyclohexylmethoxy)benzoyl]-5-[(6-methyl-4-oxo-1,2,3-benzotriazin-3(4H)-yl)methyl]cyclopentanecarboxylic acid]
5 | 93 | 2700 | 420 | 280 | CCCCCCOc1ccc(C(=O)[C@@H]2CC[C@H](Cn3nnc4ccc(C)cc4c3=O)[C@H]2C(=O)O)cc1 (single isomer, unassigned) [Example 121, (+)-(1RS,2RS,5SR)-2-[4-(Hexyloxy)benzoyl]-5-[(6-methyl-4-oxo-1,2,3-benzotriazin-3(4H)-yl)methyl]cyclopentanecarboxylic acid]
6 | 41 | 3900 | 990 | 830 | COC(=O)Nc1cccc(COc2ccc(C(=O)[C@@H]3CC[C@H](Cn4nnc5ccc(C(F)(F)F)cc5c4=O)[C@H]3C(=O)O)cc2)c1 (stereo in doubt) [Example 31, (+)-(1RS,2RS,5SR)-2-[4-({3-[(Methoxycarbonyl)amino]benzyl}oxy)benzoyl]-5-{[4-oxo-6-(trifluoromethyl)-1,2,3-benzotriazin-3(4H)-yl]methyl}cyclopentanecarboxylic acid]
7 | 130 | 8200 | 1000 | 700 | (+)-(1RS,2RS,5SR)-2-{4-[(3,4-Dichlorobenzyl)oxy]benzoyl}-5-{[4-oxo-6-(trifluoromethyl)-1,2,3-benzotriazin-3(4H)-yl]methyl}cyclopentanecarboxylic acid [Example 28]
8 | 120 | 5900 | 8100 | 6700 | (+)-(1RS,2SR,5RS)-2-{[4-Oxo-6-(trifluoromethyl)-1,2,3-benzotriazin-3(4H)-yl]methyl}-5-{4-[(2-phenylethy)sulphanyl]benzoyl}cyclopentanecarboxylic acid [Example 83]
